The source of these data is patent US6828106B2, “Methods and compositions using coiled binding partners” (Cyclacel Limited, priority 1999, dated 2004).

For experiment [1], the target named is T1, TEV protease (Tobacco etch virus, UniProt P04517).
T1 construct: Proteolytic cleavage was initiated by the addition of TEV protease (20U, Gibco Life Technologies); histidine tag; purchased Gibco Life Technologies
Kind of experiment: TEV protease FP assay with homodimer-forming reporter peptide. In kind it is biochemical. The settings on record: 0.05-100 mM iodacetamide added prior to TEV protease; 6 μM reporter peptide, 30° C.; read-out: IC50 value (TEV protease inhibitor iodacetamide) as determined by FP analysis. The method, then:
(§1) TEV protease activity and inhibition of TEV protease activity was determined by using a peptide capable of forming a homodimer, wherein homodimer formation is decreased following TEV protease cleavage of the peptide, according to the following method.
For FP analysis the reporter peptide (sequence recited above) was labeled with fluorescein or with biotin. The labeled peptides were incubated at a total peptide concentration of 6 μM (6:1 ratio, biotin:F) in 50 mM Tris, pH 8, 0.5 mM EDTA, 0.1 mg/ml BSA and 1 mM DTT at 30° C. for 5 minutes in a total volume of 100 μl. Proteolytic cleavage was initiated by the addition of TEV protease (20U), and monitored during the reaction time course by measuring the polarization of fluorescein (excitation 485 nm, emission 520 nm) over time. Initial rates of change of fluorescein polarization were determined for the linear portion of the reaction.
(§2) The activity of the TEV protease inhibitor iodacetamide was determined by FRET or FP assays performed as described above in the absence of iodacetamide or in the presence of 0.05-100 mM iodacetamide added prior to the addition of TEV protease. The results of these experiments are presented in FIG. 9 (FRET assay) and FIG. 11 (FP assay).

Experiment [2] has as its target T1, TEV protease. Description: TEV protease FRET assay with homodimer-forming reporter peptide. In kind it is biochemical. The settings on record: 0.05-100 mM iodacetamide added prior to TEV protease; 6 μM reporter peptide, 30° C.; FIG. 9; read-out: IC50 value (TEV protease inhibitor iodacetamide) as determined by FRET analysis. The method, then:
as §1
For FRET analysis the reporter peptide (KGR MRCLEDR VENLYSQ SYHLENE VARLRRL VGELAAK) (SEQ ID NO: 32) was labeled with fluorescein or rhodamine. The labeled peptides were incubated at a total peptide concentration of 6 μM (6:1 ratio, R:F) in 50 mM Tris pH 8, and 0.5 mM EDTA, and 1 mM DTT at 30° C. for 15 minutes in a total volume of 100 μl. Proteolytic cleavage was initiated by the addition of TEV protease (20U, Gibco Life Technologies), and monitored during the time course of the reaction by measuring the emission of fluorescein (excitation 485 nm, emission 520 nm) over time. Initial rates of change of fluorescein emission were determined for the linear portion of the reaction.
as §2

T1 sequence (P04517 2038-2279): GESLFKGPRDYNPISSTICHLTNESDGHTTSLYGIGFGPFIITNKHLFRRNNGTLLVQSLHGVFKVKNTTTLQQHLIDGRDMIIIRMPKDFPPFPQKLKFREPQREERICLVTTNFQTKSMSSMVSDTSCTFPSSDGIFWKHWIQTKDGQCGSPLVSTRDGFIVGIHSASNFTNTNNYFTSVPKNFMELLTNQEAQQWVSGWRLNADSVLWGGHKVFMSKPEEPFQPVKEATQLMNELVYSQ

Broadly, the IC50 is the midpoint of a concentration-inhibition curve. Take `NC(=O)CI` [iodacetamide, reference compound]: the IC50 is 1000 µM on TEV protease [1] and 885 µM at TEV protease [2].
